Laboratory results as given in PubChem BioAssay (NCI).
Values joined by “and” are separate entries in the source; they are usually repeats but may differ in a detail not shown here. Equal entries are not always repeated.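 Where inhibition never reached the appropriate level, the endpoint shown equals the highest concentration tested. Otherwise, values were interpolated linearly from a five-concentration, 48-hour dose response in 96-well plates. GI50: concentration for 50% inhibition of growth. TGI: total growth inhibition.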

System: MDA-MB-468 breast
Assay: inhibition of tumour cell growth, NCI panel, 48 h

SMILES	GI50	TGI
COc1ccccc1CNC(=O)C1c2ccccc2C(=O)N(CC(C)C)C1c1cccs1 (stereo not given)	12 µM	60.5 µM
CCCCN(CCCC)CC(C)(C)C(O)c1ccc(OC)c2ccccc12 (stereo not given)	1.56 µM	3.97 µM
O=C(CC1(O)C(=O)Nc2ccc(Br)cc21)c1ccc(C(=O)NCC2CCC3(CC2)OOC2(CCCCC2)OO3)cc1 (stereo not given)	3.13 µM	20.3 µM
CCCC1CCC(O)(C(C)(O)C(=O)NC2C(=O)N3NCCCC3C(=O)N(O)C(C)C(=O)N3NCCCC3C(=O)N3NCC(O)CC3C(=O)NC(C)C(=O)OC2C(C)C)OC1CC (stereo not given)	> 25 µM	> 25 µM
Cc1ccccc1-n1c(/C=C\c2ccccn2)nc2ccccc2c1=O	3.61 µM	32.2 µM
O=C(O)c1ccc(-c2ccc(C(=O)O)cc2I)c(I)c1	> 100 µM	> 100 µM
CS(=O)c1ccc(-c2nc(-c3ccc(F)cc3)c(-c3ccncc3)[nH]2)cc1 (stereo not given)	13.4 µM	> 60.6 µM
Cc1ccc(S(=O)(=O)NC(CCC(=O)Nc2ccccc2)C(=O)Nc2ccccc2)cc1 (stereo not given)	0.289 µM	1.13 µM
CCCCCC(=O)OCC(=O)O[C@@H]1C[C@]2(C(C)C)O[C@@]1(C)[C@@H]1CC[C@@H](C)[C@H]1[C@@H]2OC(=O)/C=C/c1ccccc1	27 µM	> 76.9 µM
COc1ccc2[nH]c(-c3cccc(N(C)C)c3)cc(=O)c2c1	13.3 µM	> 100 µM
CCCC[P+](c1ccccc1)(c1ccccc1)c1ccccc1	0.219 µM	2.37 µM
COc1cnc2c(c1)C(=O)c1c-2n(CCCN2CCNCC2)c(=O)c2cc(Cl)ccc12	0.552 µM	2.2 µM
COC(=O)c1c2c(c(C)[n+]([O-])c1C)C(=O)C(NCc1cccc(OC)c1)=CC2=O	1.52 µM	3.84 µM
COc1cc(-c2nc(SCC(=O)Nc3ccc(C(C)=O)cc3)[nH]c(=O)c2C#N)cc(OC)c1OC	25.4 µM	> 100 µM
CN(C)CCOC1(Cc2ccc(Cl)cc2Cl)CCC(C(C)(C)C)CC1 (stereo not given)	1.78 µM and 1.77 µM	3.47 µM and 3.49 µM
CCOC(=O)N1C/C(=C/c2ccc(OC)cc2)C(=O)/C(=C/c2ccc(OC)cc2)C1	1.54 µM	4.04 µM
CC[C@H](Nc1nc(N)nc(N)c1Cl)c1nc2cccc(NCc3ccc(C(=O)NO)cc3)c2c(=O)n1-c1ccccc1	1.5 µM	3.42 µM
COc1ccc(NC(=O)Nc2ccc(Nc3nc(C)cc(Nc4ccc(C)cc4)n3)cc2)cc1	1.58 µM	3.1 µM
N=C(N)c1ccc(-c2ccc(-c3ccc(Cl)cn3)s2)cc1	1.6 µM	3.41 µM
NC(N)=N/N=C/c1cccc(Cl)c1Cl	1.52 µM	3.24 µM
O=C(NCCCNC(=O)OCc1ccc2c(Br)cc(Br)c(O)c2n1)OCc1ccc2c(Br)cc(Br)c(O)c2n1	> 100 µM	> 100 µM
O=C(Nc1cccc2cccnc12)c1ccc(N2C(=O)[C@@H]3[C@H](C2=O)[C@@H]2C=C[C@H]3C2)cc1	14.2 µM	81.4 µM
COc1cc2nc(-c3ccc(-n4cncc4-c4ccc(N)cc4)cc3)sc2c(OC)c1OC	1.82 µM	4.47 µM
CCCCCCNC(=O)Oc1ccc(/C(=C(\C)c2ccccc2)c2ccc(OCCN3CCCCC3)cc2)cc1	1.74 µM	5.17 µM

SMILES	GI50	TGI
C=CC[Se]C(=O)Cc1c(C)n(C(=O)c2ccc(Cl)cc2)c2ccc(OC)cc12	1.87 µM	3.74 µM
CN1CCN(Cc2ccc(NC(=O)c3[nH]ncc3Nc3ncnc4sccc34)cc2)CC1	0.38 µM	2.56 µM
CN(C)CCOc1nc2c3cccnc3cc(-c3cccc(Cl)c3)c2c2ncccc12	1.43 µM	2.86 µM
Oc1ccc(/C=N/Nc2nc3ccccc3s2)c(O)c1	2.08 µM	8.4 µM
CCn1c(-c2nonc2N)nc2c(C#CC(C)(C)O)nc(O[C@@H](CN)c3ccccc3)cc21	0.0173 µM	0.435 µM
COc1cc(-c2nn(C(=O)NS(=O)(=O)c3ccc(C)cc3)cc2-c2ccncc2)ccc1Cl	2.91 µM	19.8 µM
COc1cccc2c1cc([N+](=O)[O-])c1c(C(=O)O)cc3c(c12)OCO3	8.57 µM	26.1 µM
COc1cc(C2CC(c3ccc4c(c3)OCO4)=NN2C(C)=O)cc(OC)c1OC (stereo not given)	0.289 µM	1.71 µM
C[C@@]1(c2ncncc2F)NC(=O)c2cc(-c3cn[nH]c3)ccc21	21.6 µM	51.5 µM
COC(=O)[C@@H](Cc1c[nH]c2ccccc12)NC(=O)/C=C/c1ccccc1	2.57 µM	25.9 µM
CC[C@@H](C)[C@H]([C@H](CC(=O)N1CCC[C@@H]1[C@@H](OC)[C@H](C)C(=O)N[C@H](Cc1ccccc1)c1nccs1)OC)N(C)C(=O)[C@H](NC(=O)[C@@H](C(C)C)N(C)C)C(C)C	–	67.2 µM
Cc1[nH]nc2c1N=C(c1ccccc1F)c1cc(C#N)ccc1N2	0.0932 µM	7.2 µM
BrC(Br)(Br)c1cnc2ccccc2n1	1.15 µM	2.76 µM
CC(F)(F)c1cc(F)ccc1-c1sc2cc(O)ccc2c1Oc1ccc(/C=C/C(=O)O)cc1	5.94 µM	43.4 µM
COc1cccc(Cn2cc3c(c2)-c2oncc2CC3)c1	0.196 µM	0.582 µM
O=C1C=CN(C2OC(CO)C(O)C2O)C(=O)C1 (stereo not given)	> 2500 µM	> 2500 µM
COc1ccc(C2C(c3ccccc3)C(=O)N2c2cc(OC)c(OC)c(OC)c2)cc1I (stereo not given)	0.373 µM	> 100 µM
O=C(NCCN1CCOCC1)Nc1ccc(-c2cc3c(Nc4ccc(Oc5cccc(C(F)(F)F)c5)c(Cl)c4)ncnc3s2)cc1	1 µM	2.5 µM
CN(Cc1ccccc1)S(=O)(=O)/N=C1\NC(=O)NC1=C(Cl)Cl	0.427 µM	12.8 µM
Oc1ccc(Br)cc1/C=N/NC(=S)NC12CC3CC(CC(C3)C1)C2	1.8 µM	4.77 µM
CC(C)c1cc(CNc2nc(Nc3cc(C4CC4)[nH]n3)cc(N3CCN(C)CC3)n2)on1	1.3 µM	5.5 µM and 2.2 µM
COc1ccc(NC(=O)c2sc3nc(C)c(C(O)c4ccc(OC)cc4)cc3c2N)cc1 (stereo not given)	0.145 µM	1.61 µM
CCCC(=O)NC(c1ccc2c(c1)OCO2)c1ccc2cccnc2c1O (stereo not given)	0.388 µM	2.53 µM
O=C1/C(=C/c2ccc([N+](=O)[O-])s2)Oc2ccccc21	0.39 µM	2.17 µM
